Measured values reported in ChEMBL document CHEMBL1201862, “PubChem BioAssay data set” (2004).
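The compound was tested at five concentrations on cells cultured in 96-well plates, with a 48-hour exposure period. Here, GI50 denotes the concentration required for 50% inhibition of growth.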 The source made the active and inactive calls. Rule as the data show it: active = GI50 up to about 1.1 µM and inactive = higher.

Experiments:
Assay in all cases: inhibition of tumour cell growth, NCI panel, 48 h
NCI-H522 = tested on: NCI-H522
SR = tested on: SR
SK-MEL-5 = tested on: SK-MEL-5
SK-MEL-2 = tested on: SK-MEL-2
TK-10 = tested on: TK-10
SF-539 = tested on: SF-539
MDA-MB-435 = tested on: MDA-MB-435
MOLT-4 = tested on: MOLT-4
SNB-75 = tested on: SNB-75
IGROV-1 = tested on: IGROV-1
SF-295 = tested on: SF-295
K562 = tested on: K562
HOP-62 = tested on: HOP-62
UACC-62 = tested on: UACC-62
OVCAR-5 = tested on: OVCAR-5
SK-OV-3 = tested on: SK-OV-3
PC-3 = tested on: PC-3
OVCAR-3 = tested on: OVCAR-3
RPMI-8226 = tested on: RPMI-8226
A498 = tested on: A498

| Structure (SMILES) | GI50 (NCI-H522) | GI50 (SR) | GI50 (SK-MEL-5) | GI50 (SK-MEL-2) | GI50 (TK-10) | GI50 (SF-539) | GI50 (MDA-MB-435) | GI50 (MOLT-4) | GI50 (SNB-75) | GI50 (IGROV-1) | GI50 (SF-295) | GI50 (K562) | GI50 (HOP-62) | GI50 (UACC-62) | GI50 (OVCAR-5) | GI50 (SK-OV-3) | GI50 (PC-3) | GI50 (OVCAR-3) | GI50 (RPMI-8226) | GI50 (A498) |
| --- | --- | --- | --- | --- | --- | --- | --- | --- | --- | --- | --- | --- | --- | --- | --- | --- | --- | --- | --- | --- |
| Cc1ccc(/C=N/Nc2cc(C)c3ccccc3n2)s1 | 4.06 µM (inactive) | 6.38 µM (inactive) | 8.3 µM (inactive) | 34.1 µM (inactive) | 30.8 µM (inactive) | 21.3 µM (inactive) | 21.2 µM (inactive) | 1.42 µM (inactive) | 31.6 µM (inactive) | 10.2 µM (inactive) | 15.1 µM (inactive) | 7 µM (inactive) | 15.7 µM (inactive) | 23.4 µM (inactive) | 15.6 µM (inactive) | 19.3 µM (inactive) | 14 µM (inactive) | 2.65 µM (inactive) | 3.91 µM (inactive) | – |
| COc1cc2c(c(OC)c1OC)-c1cccc(=O)cc1C(NC(C)=O)CC2 (stereo unspecified) | 0.0382 µM (active) | – | 0.0397 µM (active) | 0.0698 µM (active) | > 28.2 µM (inactive) | 0.042 µM (active) | < 0.01 µM (active) | 0.0553 µM (active) | 0.0391 µM (active) | 0.166 µM (active) | 0.0792 µM (active) | 0.0335 µM (active) | 0.172 µM (active) | 0.0474 µM (active) | 7.5 µM (inactive) | 0.485 µM (active) | 0.0152 µM (active) | 0.0463 µM (active) | 0.0267 µM (active) | 0.332 µM (active) |
| O=C1CC(C(CC(=O)c2ccccc2)c2ccccc2)C(=O)c2ccccc2N1 (stereo unspecified) | – | 16 µM (inactive) | 24.2 µM (inactive) | 16 µM (inactive) | – | 38.3 µM (inactive) | 50.1 µM (inactive) | 17.8 µM (inactive) | 30.8 µM (inactive) | > 100 µM (inactive) | 37.2 µM (inactive) | 33.1 µM (inactive) | 51.1 µM (inactive) | 31.6 µM (inactive) | 56 µM (inactive) | > 100 µM (inactive) | 25.5 µM (inactive) | 28.4 µM (inactive) | 22.1 µM (inactive) | > 100 µM (inactive) |
| O=C1CC(c2ccc[nH]2)=NN1c1ccccc1 | > 100 µM (inactive) | – | > 100 µM (inactive) | > 100 µM (inactive) | > 100 µM (inactive) | > 100 µM (inactive) | > 100 µM (inactive) | 27.8 µM (inactive) | > 100 µM (inactive) | – | > 100 µM (inactive) | 73.5 µM (inactive) | > 100 µM (inactive) | > 100 µM (inactive) | > 100 µM (inactive) | > 100 µM (inactive) | > 100 µM (inactive) | > 100 µM (inactive) | > 100 µM (inactive) | > 100 µM (inactive) |
| O=C1Nc2c(Cl)cc(Cl)cc2/C1=N/N=C/c1ccco1 | – | 24.8 µM (inactive) | 29.6 µM (inactive) | 24.4 µM (inactive) | 48.5 µM (inactive) | 29.1 µM (inactive) | 29.9 µM (inactive) | 27.2 µM (inactive) | 10.5 µM (inactive) | 27.5 µM (inactive) | 31.7 µM (inactive) | 31.4 µM (inactive) | 34.7 µM (inactive) | 21.5 µM (inactive) | 61 µM (inactive) | 67.3 µM (inactive) | 29.8 µM (inactive) | 24.7 µM (inactive) | – | 21.2 µM (inactive) |
| COc1ccc(C2=NN(c3ccccc3)C(c3cc4cc(Br)ccc4nc3Cl)C2)cc1 (stereo unspecified) | 16.7 µM (inactive) | 16.3 µM (inactive) | > 25 µM (inactive) | > 25 µM (inactive) | – | > 25 µM (inactive) | 14.3 µM (inactive) | > 25 µM (inactive) | > 25 µM (inactive) | 15.2 µM (inactive) | 9.51 µM (inactive) | 14.1 µM (inactive) | 18.8 µM (inactive) | – | > 25 µM (inactive) | > 25 µM (inactive) | 23 µM (inactive) | > 25 µM (inactive) | > 25 µM (inactive) | – |
| CC(=O)c1sc2c(c1OC(=O)c1ccco1)c(=O)n(-c1ccccc1)c(=S)n2-c1ccccc1 | 19.9 µM (inactive) | 29.4 µM (inactive) | 5.81 µM (inactive) | 10.4 µM (inactive) | 31.8 µM (inactive) | 4.19 µM (inactive) | 15 µM (inactive) | 19.5 µM (inactive) | 21.8 µM (inactive) | 23.1 µM (inactive) | 5.16 µM (inactive) | 30.8 µM (inactive) | 25.1 µM (inactive) | > 10 µM (inactive) | – | 16 µM (inactive) | 16.9 µM (inactive) | 32.8 µM (inactive) | 4.89 µM (inactive) | – |
| CC1(C)[N+]([O-])=[N+]([O-])C1(Br)c1ccccc1 (stereo unspecified) | – | 43.5 µM (inactive) | > 100 µM (inactive) | > 100 µM (inactive) | > 100 µM (inactive) | > 100 µM (inactive) | > 100 µM (inactive) | 45.4 µM (inactive) | > 100 µM (inactive) | > 100 µM (inactive) | 49.2 µM (inactive) | 85.7 µM (inactive) | > 100 µM (inactive) | > 100 µM (inactive) | > 100 µM (inactive) | > 100 µM (inactive) | > 100 µM (inactive) | 39.2 µM (inactive) | 42.7 µM (inactive) | – |
| NCc1ccc(O)c(O)c1 | – | 38.5 µM (inactive) | > 100 µM (inactive) | > 100 µM (inactive) | – | > 100 µM (inactive) | > 100 µM (inactive) | 27.1 µM (inactive) | > 100 µM (inactive) | 60.1 µM (inactive) | > 100 µM (inactive) | > 100 µM (inactive) | > 100 µM (inactive) | > 100 µM (inactive) | > 100 µM (inactive) | > 100 µM (inactive) | > 100 µM (inactive) | 55.8 µM (inactive) | > 100 µM (inactive) | > 100 µM (inactive) |
| CN1CCN(CN2C(=O)C3C4C=CC(C3C2=O)C2C(=O)N(CN3CCN(C)CC3)C(=O)C42)CC1 (stereo unspecified) | > 42.1 µM (inactive) | 32.4 µM (inactive) | 5.55 µM (inactive) | > 100 µM (inactive) | > 70.3 µM (inactive) | > 49.3 µM (inactive) | > 74.6 µM (inactive) | 36.9 µM (inactive) | > 100 µM (inactive) | 50.6 µM (inactive) | > 82.4 µM (inactive) | 45.7 µM (inactive) | > 54.1 µM (inactive) | 35 µM (inactive) | > 100 µM (inactive) | > 100 µM (inactive) | > 84.5 µM (inactive) | > 59.6 µM (inactive) | 20.7 µM (inactive) | – |
| CC(C)C(C(=O)O)N1C(=O)c2ccccc2C1=O (stereo unspecified) | > 100 µM (inactive) | – | > 100 µM (inactive) | 0.18 µM (active) | > 100 µM (inactive) | – | > 100 µM (inactive) | > 100 µM (inactive) | > 100 µM (inactive) | > 100 µM (inactive) | > 100 µM (inactive) | > 100 µM (inactive) | > 100 µM (inactive) | > 100 µM (inactive) | > 100 µM (inactive) | > 100 µM (inactive) | > 100 µM (inactive) | > 100 µM (inactive) | > 100 µM (inactive) | > 100 µM (inactive) |
| COC1(c2ccc(Cl)cc2)SC=C(C)n2c1noc2=O (stereo unspecified) | 89.5 µM (inactive) | > 100 µM (inactive) | > 100 µM (inactive) | – | – | – | > 100 µM (inactive) | > 100 µM (inactive) | – | > 100 µM (inactive) | > 100 µM (inactive) | > 100 µM (inactive) | – | > 100 µM (inactive) | > 100 µM (inactive) | – | > 100 µM (inactive) | 29.7 µM (inactive) | > 100 µM (inactive) | > 100 µM (inactive) |
| O=C(O)c1cc(/C=C/c2cc(O)ccc2O)ccc1O | > 10 µM (inactive) | > 10 µM (inactive) | – | > 10 µM (inactive) | > 10 µM (inactive) | > 10 µM (inactive) | > 10 µM (inactive) | > 10 µM (inactive) | – | – | > 10 µM (inactive) | 2.85 µM (inactive) | – | > 10 µM (inactive) | > 10 µM (inactive) | – | > 10 µM (inactive) | > 10 µM (inactive) | – | – |
| COc1ccc(-c2nc(-c3cnccn3)n(C/C=C/c3ccccc3)n2)cc1 | 32.8 µM (inactive) | > 100 µM (inactive) | 44.4 µM (inactive) | – | – | 26.5 µM (inactive) | > 100 µM (inactive) | > 100 µM (inactive) | 21.8 µM (inactive) | 48.1 µM (inactive) | 32.1 µM (inactive) | > 100 µM (inactive) | 21.5 µM (inactive) | 35.2 µM (inactive) | > 100 µM (inactive) | 17.9 µM (inactive) | > 100 µM (inactive) | 40.4 µM (inactive) | > 100 µM (inactive) | – |
| Cn1c2c(c3ccccc31)CC(=S)N1CCCC(CC2O)C1 (stereo unspecified) | > 100 µM (inactive) | – | > 100 µM (inactive) | > 100 µM (inactive) | > 100 µM (inactive) | > 100 µM (inactive) | > 100 µM (inactive) | – | > 100 µM (inactive) | – | > 100 µM (inactive) | > 100 µM (inactive) | – | 91.2 µM (inactive) | – | > 100 µM (inactive) | > 100 µM (inactive) | – | > 100 µM (inactive) | > 100 µM (inactive) |
| COP(=O)(O)/C=C/C(NC(=O)C(Cl)(Cl)Cl)c1ccccc1 (stereo unspecified) | > 100 µM (inactive) | – | > 100 µM (inactive) | > 100 µM (inactive) | > 100 µM (inactive) | – | > 100 µM (inactive) | > 100 µM (inactive) | > 100 µM (inactive) | > 100 µM (inactive) | > 100 µM (inactive) | > 100 µM (inactive) | > 100 µM (inactive) | > 100 µM (inactive) | > 100 µM (inactive) | > 100 µM (inactive) | > 100 µM (inactive) | > 100 µM (inactive) | > 100 µM (inactive) | > 100 µM (inactive) |
